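How tested: cells in 96-well plates exposed to compound for 48 hours at five concentrations. GI50 is the concentration that inhibits growth by half.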 Active and inactive are the calls of the source. Cut-off read from the data, not from the text of the source: active = GI50 up to about 1.1 µM and inactive = higher.
Columns and labels:
Assay in all cases: NCI anticancer screen, dose series, 48 h
SK-MEL-28 = system: SK-MEL-28
A498 = system: A498
NCI-H460 = system: NCI-H460
OVCAR-4 = system: OVCAR-4
HCT-116 = system: HCT-116
IGROV-1 = system: IGROV-1
PC-3 = system: PC-3
SK-MEL-5 = system: SK-MEL-5
ACHN = system: ACHN
HL-60 = system: HL-60
NCI-H23 = system: NCI-H23
NCI-H522 = system: NCI-H522
TK-10 = system: TK-10
K562 = system: K562
RPMI-8226 = system: RPMI-8226
SW-620 = system: SW-620
SN12C = system: SN12C
LOX IMVI = system: LOX IMVI
CAKI-1 = system: CAKI-1
MDA-MB-231 = system: MDA-MB-231

Structure (SMILES) | GI50 (SK-MEL-28) | GI50 (A498) | GI50 (NCI-H460) | GI50 (OVCAR-4) | GI50 (HCT-116) | GI50 (IGROV-1) | GI50 (PC-3) | GI50 (SK-MEL-5) | GI50 (ACHN) | GI50 (HL-60) | GI50 (NCI-H23) | GI50 (NCI-H522) | GI50 (TK-10) | GI50 (K562) | GI50 (RPMI-8226) | GI50 (SW-620) | GI50 (SN12C) | GI50 (LOX IMVI) | GI50 (CAKI-1) | GI50 (MDA-MB-231)
COC(=O)c1c(O)ccc2c1c1c(n2CCc2ccccc2)C(=O)c2ccccc2C1=O | 16 µM (inactive) | 16.6 µM (inactive) | 4.11 µM (inactive) | 6.79 µM (inactive) | 10.9 µM (inactive) | 11.9 µM (inactive) | 11.6 µM (inactive) | 12.5 µM (inactive) | 11.9 µM (inactive) | 17.8 µM (inactive) | 11.6 µM (inactive) | 7.08 µM (inactive) | 11.6 µM (inactive) | 8.38 µM (inactive) | 7.03 µM (inactive) | 13.2 µM (inactive) | 12 µM (inactive) | 15.7 µM (inactive) | 13.1 µM (inactive) | 14.6 µM (inactive)
NC(=O)c1nnsc1NN=O | > 100 µM (inactive) | > 100 µM (inactive) | > 100 µM (inactive) | > 100 µM (inactive) | > 100 µM (inactive) | > 100 µM (inactive) | > 100 µM (inactive) | > 100 µM (inactive) | > 100 µM (inactive) | > 100 µM (inactive) | > 100 µM (inactive) | > 100 µM (inactive) |  | > 100 µM (inactive) | > 100 µM (inactive) | > 100 µM (inactive) | > 100 µM (inactive) | > 100 µM (inactive) | > 100 µM (inactive) | > 100 µM (inactive)
CCOC(=O)/C=C/C(Br)=C(Br)/C=C/C(=O)OCC | 12.4 µM (inactive) | 26.9 µM (inactive) | 33.9 µM (inactive) | 17.7 µM (inactive) | 2.77 µM (inactive) | 14.2 µM (inactive) | 13.5 µM (inactive) | 12.9 µM (inactive) | 12.3 µM (inactive) | 5.85 µM (inactive) | 14.5 µM (inactive) | 2.12 µM (inactive) | 14.2 µM (inactive) | 2.65 µM (inactive) | 2.59 µM (inactive) |  | 7.85 µM (inactive) | 2.52 µM (inactive) | 3.84 µM (inactive) | 16.3 µM (inactive)
CC(C)Oc1cccc(N2C(CCc3c[nH]c4ccc(Br)cc34)=NS(=O)(=O)c3cnccc32)c1 | > 100 µM (inactive) | 35.4 µM (inactive) | 35.1 µM (inactive) | 27.5 µM (inactive) | 20.3 µM (inactive) |  | 24.7 µM (inactive) | 35 µM (inactive) | 28.7 µM (inactive) | 23.3 µM (inactive) | 61.9 µM (inactive) | 27.9 µM (inactive) | 53.8 µM (inactive) | 27 µM (inactive) | 24 µM (inactive) | 72.3 µM (inactive) | 69 µM (inactive) | 59.7 µM (inactive) | 22.7 µM (inactive) | > 100 µM (inactive)
O=C1CC(c2ccc([N+](=O)[O-])cc2)C2(C(=O)NC(=S)NC2=O)C(c2ccc([N+](=O)[O-])cc2)C1 (stereo unspecified) | 40.7 µM (inactive) | 32.4 µM (inactive) | 21.8 µM (inactive) | 45.7 µM (inactive) | 16.7 µM (inactive) | 16.3 µM (inactive) | 30.5 µM (inactive) | 31.3 µM (inactive) | 20.1 µM (inactive) | 51.6 µM (inactive) | 22.1 µM (inactive) | 18.9 µM (inactive) | 16.3 µM (inactive) | 62.5 µM (inactive) | 42.9 µM (inactive) | 29.7 µM (inactive) | 21.5 µM (inactive) | 19 µM (inactive) |  | 13.6 µM (inactive)
CCN(CC)CCNc1ccc2nc(C)n3c4ccc(OC)cc4c(=O)c1c23 | 10.4 µM (inactive) | 3.7 µM (inactive) | 0.538 µM (active) | 1.41 µM (inactive) | 0.282 µM (active) | 0.494 µM (active) | 0.955 µM (active) | 5.57 µM (inactive) | 0.367 µM (active) | 1.17 µM (inactive) | 2.06 µM (inactive) | 0.272 µM (active) | 0.873 µM (active) | 0.401 µM (active) | 1.36 µM (inactive) | 0.711 µM (active) | 0.546 µM (active) | 1.15 µM (inactive) | 1.86 µM (inactive) | 0.423 µM (active)
CCC[C@@H]1C(=O)N=C(N)N1C(=O)OCc1ccccc1 | > 100 µM (inactive) | > 100 µM (inactive) | > 100 µM (inactive) | > 100 µM (inactive) | > 100 µM (inactive) | > 100 µM (inactive) | > 100 µM (inactive) | > 100 µM (inactive) | > 100 µM (inactive) | > 100 µM (inactive) | > 100 µM (inactive) | > 100 µM (inactive) | > 100 µM (inactive) | > 100 µM (inactive) | > 100 µM (inactive) | > 100 µM (inactive) | > 100 µM (inactive) | > 100 µM (inactive) | > 100 µM (inactive) | > 100 µM (inactive)

From ChEMBL document CHEMBL1201862, “PubChem BioAssay data set” (2004)
